The record followed here is PubChem BioAssay (NCI).

Among the test systems are K-562 leukemia; KM12 colon; LOX IMVI melanoma; M14 melanoma; MDA-MB-435; OVCAR-5 ovarian; OVCAR-8 ovarian; SK-MEL-28 melanoma; U251 CNS; SF-539 CNS; A498 renal.
Holding throughout (test): inhibition of tumour cell growth, NCI panel, 48 h

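Growth conditions: 96-well plates. Treatment: test compound, 48 hours, 5 concentrations. Analysis: linear interpolation between bracketing concentrations; unreached endpoints set to highest concentration. GI50 = concentration required for 50% inhibition of growth. The concentration for full growth arrest is given as TGI.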

In the case of `O=c1[nH]c(=O)n(COC(CO)CO)cc1-c1ccccc1`, the TGI in the test with K-562 leukemia, in the test on KM12 colon, with LOX IMVI melanoma, in the test with M14 melanoma, in the test on MDA-MB-435 and with OVCAR-5 ovarian was over 100 µM each time. Further, the TGI with OVCAR-8 ovarian, with SK-MEL-28 melanoma and in the test on U251 CNS was over 100 µM throughout.
Consider `O=C(CNc1ccccc1C(=O)O)Nn1cnc2ccc(S(=O)(=O)Nc3ccccc3C(=O)O)cc2c1=O`, for which the TGI with K-562 leukemia, in the test with KM12 colon, in the test on LOX IMVI melanoma, in the test with M14 melanoma, in the test on MDA-MB-435 and in the test on OVCAR-5 ovarian was over 100 µM throughout. The TGI in the test on OVCAR-8 ovarian, with SF-539 CNS, with SK-MEL-28 melanoma and in the test with U251 CNS was over 100 µM in each case.
For the compound `O=C1c2cc3c(cc2-c2c1c1cc(F)c(F)cc1c(=O)n2CCCn1ccnc1)OCO3`, the GI50 in the test on A498 renal is 0.0233 µM; in the test with K-562 leukemia, 0.0441 µM; in the test on KM12 colon, 0.0469 µM; in the test on M14 melanoma, 0.0101 µM; in the test with OVCAR-5 ovarian, 0.0832 µM; with OVCAR-8 ovarian, 0.022 µM. Also, the figures for the GI50 in the test with SF-539 CNS, in the test with SK-MEL-28 melanoma and in the test on U251 CNS were under 0.01 µM, 0.228 µM and under 0.01 µM, respectively. Further, the TGI is 0.116 µM with A498 renal; over 100 µM with K-562 leukemia; 14.7 µM with KM12 colon; over 100 µM with M14 melanoma; over 100 µM in the test with OVCAR-5 ovarian; over 100 µM in the test on OVCAR-8 ovarian. The TGI was 0.0457 µM in the test on SF-539 CNS, over 100 µM in the test with SK-MEL-28 melanoma and 10.2 µM in the test with U251 CNS.
In the case of `c1cnc2c(c1)-n1cccc1C1(CCCCC1)NN2`, the TGI with K-562 leukemia, with KM12 colon, with LOX IMVI melanoma, in the test with M14 melanoma, in the test with OVCAR-5 ovarian and in the test on OVCAR-8 ovarian was over 100 µM in each case. The TGI in the test with SF-539 CNS and in the test on SK-MEL-28 melanoma was over 100 µM each time.
As for `O=C1NC(O)c2cc3ccccc3cc2O1` (stereo not drawn), the TGI was over 100 µM with K-562 leukemia; over 100 µM in the test with KM12 colon; 95.3 µM with LOX IMVI melanoma; over 100 µM in the test with M14 melanoma; over 100 µM in the test with MDA-MB-435; over 100 µM in the test on OVCAR-5 ovarian. Moreover, the TGI in the test on OVCAR-8 ovarian was over 100 µM; with SF-539 CNS it was 89.9 µM; in the test on SK-MEL-28 melanoma, over 100 µM; in the test on U251 CNS, 87.3 µM.
Consider `NC(=O)CCC(N=c1c2ccccc2n(O)c2ccccc12)C(=O)O` (stereo not drawn), for which the TGI with A498 renal, in the test on K-562 leukemia, in the test on KM12 colon, with LOX IMVI melanoma, in the test with M14 melanoma and with OVCAR-5 ovarian was over 100 µM throughout. The TGI in the test on OVCAR-8 ovarian was over 100 µM; with SK-MEL-28 melanoma, 89.4 µM; in the test on U251 CNS, over 100 µM.
Regarding `CCc1nc(N)c2nc(-c3cccs3)oc2n1`, the TGI in the test with K-562 leukemia, with KM12 colon, with LOX IMVI melanoma, in the test with M14 melanoma, in the test with MDA-MB-435 and in the test on OVCAR-5 ovarian was over 100 µM in each case. Also, the TGI in the test with OVCAR-8 ovarian, in the test with SF-539 CNS, in the test on SK-MEL-28 melanoma and in the test on U251 CNS was over 100 µM throughout.
`O=C1/C(=C/c2ccccc2)Oc2cc(O)ccc21`: the TGI with K-562 leukemia, in the test on KM12 colon, in the test on M14 melanoma, in the test with MDA-MB-435, with OVCAR-8 ovarian and in the test on SF-539 CNS was over 100 µM throughout. The TGI in the test on SK-MEL-28 melanoma and in the test on U251 CNS was over 100 µM each time.
As to `N#Cc1ccccc1NC(=O)C(=O)C(C(=O)c1ccccc1F)C1OC(=O)c2ccccc21` (stereo not drawn), the TGI in the test with A498 renal, in the test on K-562 leukemia, in the test with KM12 colon, in the test on LOX IMVI melanoma, with M14 melanoma and in the test on OVCAR-5 ovarian was over 100 µM in each case. Moreover, the TGI was over 100 µM with OVCAR-8 ovarian, 82.9 µM in the test on SF-539 CNS, over 100 µM in the test on SK-MEL-28 melanoma and 40.8 µM in the test with U251 CNS.
In the case of `COc1cc2c[n+]3c4c(c2c(OC)c1OC)CCCC4CC3` (stereo not drawn), the TGI with A498 renal, with K-562 leukemia, in the test on KM12 colon, in the test with M14 melanoma, in the test on MDA-MB-435 and with OVCAR-5 ovarian was over 100 µM in each case. Moreover, the TGI in the test with SK-MEL-28 melanoma and with U251 CNS was over 100 µM in each case.
For the compound `COC(=O)C1=C(CCCCO[Si](C)(C)C(C)(C)C)NC(=O)N2[C@H](CCOCc3ccccc3)CC[C@@H]12`, the TGI in the test on A498 renal, in the test with K-562 leukemia, in the test on KM12 colon, in the test with M14 melanoma, with MDA-MB-435 and with OVCAR-5 ovarian was over 100 µM in each case. The TGI with SF-539 CNS, in the test on SK-MEL-28 melanoma and in the test on U251 CNS was over 100 µM throughout.
With `N#Cc1nc(CCc2nc(C#N)c(N)o2)oc1N`, the TGI with K-562 leukemia, in the test with KM12 colon, with LOX IMVI melanoma, in the test with M14 melanoma, with MDA-MB-435 and with OVCAR-5 ovarian was over 10 µM throughout. In addition, the TGI in the test on OVCAR-8 ovarian, in the test with SF-539 CNS and with SK-MEL-28 melanoma was over 10 µM throughout.
In the case of `CC(O)c1nc(C#N)c(N)o1` (stereo not drawn), the TGI with A498 renal, in the test on K-562 leukemia, in the test on KM12 colon, with LOX IMVI melanoma, in the test on M14 melanoma and in the test on OVCAR-5 ovarian was over 100 µM in each case. For the same compound, the TGI in the test with OVCAR-8 ovarian, in the test with SF-539 CNS, in the test on SK-MEL-28 melanoma and in the test with U251 CNS was over 100 µM each time.
